{"source": "ChEMBL document CHEMBL6115017", "about": "“Discovery of DFV890, a Potent Sulfonimidamide-Containing NLRP3 Inflammasome Inhibitor” (J Med Chem, 2025)", "key": {"[1]": {"test_system": "PBMC", "assay": "Antagonist activity at NLRP3 inflammasome activation in Cynomolgus monkey PBMC assessed as inhibition of LPS-stimulated IL-1beta release by measuring free concentration pretreated for 1 hr followed by induced with LPS measured after 18 hrs by HTRF analysis", "type": "cell-based", "settings": "Macaca fascicularis, filed as antagonist, time 19.0 hrs"}, "[2]": {"test_system": "Mus musculus", "assay": "In vivo anti-inflammatory activity against MSU crystal-induced gouty arthritis Balb/c mouse model assessed as reduction in neutrophil recruitment in at 0.1 to 50 mg/kg, po single dose", "type": "functional, organism-based", "settings": "dose 0.1-50 mg/kg"}, "[3]": {"assay": "Thermodynamic solubility in Simulated colon solution", "type": "physicochemical", "settings": "read-out: Therm_solubility"}, "[4]": {"assay": "Metabolic stability in dog hepatocytes assessed as intrinsic clearance measured per 10^6 cells", "type": "ADME, cell-based, Canis lupus familiaris, Hepatocyte", "settings": "read-out: CLH"}, "[5]": {"assay": "Cmax in Beagle dog at 2 mg/kg, po by LC-MS analysis", "type": "ADME, organism-based, Canis lupus familiaris", "settings": "in vivo"}, "[6]": {"assay": "Mutagenicity in Salmonella typhimurium by AMES test", "type": "toxicity", "settings": "salmonella enterica subsp. enterica serovar typhimurium"}, "[7]": {"target": "Cytochrome P450 2C9 (Homo sapiens, UniProt P11712)", "sequence (P11712 whole entry)": "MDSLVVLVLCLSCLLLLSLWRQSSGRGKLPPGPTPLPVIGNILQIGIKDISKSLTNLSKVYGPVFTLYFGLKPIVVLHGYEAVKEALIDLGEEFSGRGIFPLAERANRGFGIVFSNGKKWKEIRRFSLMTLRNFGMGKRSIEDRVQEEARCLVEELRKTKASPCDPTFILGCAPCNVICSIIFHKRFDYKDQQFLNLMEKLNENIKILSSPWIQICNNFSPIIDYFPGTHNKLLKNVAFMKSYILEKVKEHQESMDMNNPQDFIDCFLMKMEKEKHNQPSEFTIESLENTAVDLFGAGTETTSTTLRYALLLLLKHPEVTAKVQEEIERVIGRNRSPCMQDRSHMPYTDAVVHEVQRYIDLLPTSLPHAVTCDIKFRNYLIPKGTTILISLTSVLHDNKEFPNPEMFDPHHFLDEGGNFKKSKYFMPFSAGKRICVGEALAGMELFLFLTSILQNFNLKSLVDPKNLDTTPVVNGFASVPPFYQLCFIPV", "assay": "Inhibition of CYP2C9 (unknown origin) by time dependent inhibition assay", "type": "ADME"}, "[8]": {"assay": "Oral bioavailability in Sprague-Dawley rat at 5 mg/kg administered through oral gavage by LC-MS analysis", "type": "ADME, organism-based", "settings": "in vivo"}, "[9]": {"assay": "Half life in C57 BL6 mouse at 10 mg/kg, po and 2 mg/kg, iv by LC-MS analysis", "type": "ADME, organism-based", "settings": "in vivo"}, "[10]": {"assay": "Thermodynamic solubility in PBS at pH 1", "type": "physicochemical", "settings": "read-out: Therm_solubility"}, "[11]": {"assay": "Lipophilicity, log D of compound in potassium phosphate buffer/octanol at pH 7.4", "type": "physicochemical"}, "[12]": {"target": "5-hydroxytryptamine receptor 2A (Homo sapiens) (UniProt P28223)", "sequence (P28223 whole entry)": "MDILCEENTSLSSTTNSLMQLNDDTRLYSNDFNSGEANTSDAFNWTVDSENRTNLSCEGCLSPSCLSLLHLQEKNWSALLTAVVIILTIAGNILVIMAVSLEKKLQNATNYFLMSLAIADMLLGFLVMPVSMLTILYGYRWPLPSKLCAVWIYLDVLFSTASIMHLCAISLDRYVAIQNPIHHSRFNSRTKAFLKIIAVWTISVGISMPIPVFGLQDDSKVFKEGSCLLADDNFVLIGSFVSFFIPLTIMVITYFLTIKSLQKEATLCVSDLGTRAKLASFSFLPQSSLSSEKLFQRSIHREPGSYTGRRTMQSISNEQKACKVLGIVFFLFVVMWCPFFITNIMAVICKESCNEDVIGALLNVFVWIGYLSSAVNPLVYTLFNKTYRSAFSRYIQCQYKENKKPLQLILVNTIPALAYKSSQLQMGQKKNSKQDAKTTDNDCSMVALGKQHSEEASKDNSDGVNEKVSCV", "assay": "Inhibition of 5HT2A (unknown origin)", "settings": "concentration not given here"}, "[13]": {"assay": "Cytotoxicity against human HEK293 cells measured after 72 hrs", "type": "toxicity, cell-based"}, "[14]": {"target": "T1, Cytochrome P450 1A2 (Homo sapiens, UniProt P05177)", "T1 sequence (P05177 whole entry)": "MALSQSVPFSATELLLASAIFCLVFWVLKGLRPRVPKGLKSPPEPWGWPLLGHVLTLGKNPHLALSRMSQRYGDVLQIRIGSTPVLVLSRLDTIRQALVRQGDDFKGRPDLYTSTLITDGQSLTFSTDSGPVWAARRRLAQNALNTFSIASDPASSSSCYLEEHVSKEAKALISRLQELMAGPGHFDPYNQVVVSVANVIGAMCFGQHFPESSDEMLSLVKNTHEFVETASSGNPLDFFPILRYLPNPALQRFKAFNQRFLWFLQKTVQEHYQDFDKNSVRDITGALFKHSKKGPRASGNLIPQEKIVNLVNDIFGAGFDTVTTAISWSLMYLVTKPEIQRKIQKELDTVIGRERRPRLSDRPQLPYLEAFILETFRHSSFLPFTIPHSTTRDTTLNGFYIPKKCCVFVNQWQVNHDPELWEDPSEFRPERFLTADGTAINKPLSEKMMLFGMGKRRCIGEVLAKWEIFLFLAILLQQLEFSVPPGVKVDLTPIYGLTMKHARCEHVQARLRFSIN", "assay": "Inhibition of CYP1A2 (unknown origin) by time dependent inhibition assay", "type": "ADME"}, "[15]": {"target": "Cytochrome P450 2D6 (Homo sapiens, UniProt P10635)", "sequence (P10635 whole entry)": "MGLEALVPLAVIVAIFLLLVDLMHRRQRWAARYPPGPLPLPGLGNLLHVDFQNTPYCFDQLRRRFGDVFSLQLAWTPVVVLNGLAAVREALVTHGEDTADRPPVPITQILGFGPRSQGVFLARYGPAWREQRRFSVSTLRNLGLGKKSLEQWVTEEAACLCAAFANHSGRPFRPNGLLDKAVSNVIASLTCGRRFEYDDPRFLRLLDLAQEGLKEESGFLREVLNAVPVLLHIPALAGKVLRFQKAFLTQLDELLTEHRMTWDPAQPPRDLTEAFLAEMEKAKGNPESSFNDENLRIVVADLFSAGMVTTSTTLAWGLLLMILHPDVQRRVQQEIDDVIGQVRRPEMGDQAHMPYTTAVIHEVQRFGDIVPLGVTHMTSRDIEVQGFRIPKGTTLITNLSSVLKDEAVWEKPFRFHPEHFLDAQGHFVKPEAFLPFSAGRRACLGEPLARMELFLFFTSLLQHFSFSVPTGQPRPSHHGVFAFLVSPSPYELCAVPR", "assay": "Inhibition of CYP2D6 (unknown origin) by time dependent inhibition assay", "type": "ADME"}, "[16]": {"assay": "Fraction unbound in Sprague-Dawley rat plasma", "type": "ADME, cell-free"}}, "note": "Active and inactive are the calls of the source. No cut-off for these calls is given here.", "data": [{"smiles": "CC(C)(O)c1ncc([S@](N)(=O)=NC(=O)Nc2c3c(cc4c2CCC4)CCC3)s1", "values": [{"measurement": "fIC50", "setting": "[1]", "result": 1, "unit": "nM"}, {"measurement": "Activity", "setting": "[2]", "result": "Active"}, {"measurement": "solubility thermodynamic", "setting": "[3]", "result": 31.9, "unit": "µg/mL"}, {"measurement": "hepatocyte CLint", "setting": "[4]", "result": "< 1.9", "unit": "µL/min/1e6 cells"}, {"measurement": "Cmax", "setting": "[5]", "result": 6560, "unit": "ng/mL"}, {"measurement": "Activity", "setting": "[6]", "result": "Non-toxic"}, {"measurement": "TDI", "setting": "[7]", "result": "Not_active"}, {"measurement": "bioavailability", "setting": "[8]", "result": 82, "unit": "%"}, {"measurement": "half-life", "setting": "[9]", "result": 3.9, "unit": "h"}, {"measurement": "solubility thermodynamic", "setting": "[10]", "result": 7.4, "unit": "µg/mL"}, {"measurement": "logD", "setting": "[11]", "result": 2.37}, {"measurement": "inhibition", "setting": "[12]", "result": "> 50", "unit": "%"}, {"measurement": "EC50 at 72 h", "setting": "[13]", "result": "> 100", "unit": "µM"}, {"measurement": "TDI", "setting": "[14]", "result": "Not_active"}, {"measurement": "TDI", "setting": "[15]", "result": "Not_active"}, {"measurement": "fraction unbound", "setting": "[16]", "result": 0.012}]}]}
